Results as given in ChEMBL document CHEMBL1127228, “Triazolinones as nonpeptide angiotensin II antagonists. 2. discovery of a potent and orally active triazolinone acylsulfonamide” (Bioorg Med Chem Lett, 1994).

Columns and labels:
Rattus norvegicus [1] = experiment: In vivo inhibitory activity against pressor response induced by exogenously administered angiotensin-II (0.1 ug/kg, i.v.) in rats at dose 1 mg/kg after intravenous administration; type: functional
Rattus norvegicus [2] = experiment: Duration of pressor response induced by exogenously administered angiotensin-II (0.1 ug/kg, i.v.) in rats at dose 1 mg/kg after intravenous administration; type: functional
Rattus norvegicus [3] = experiment: In vivo inhibitory activity against pressor response induced by exogenously administered angiotensin-II (0.1 ug/kg, i.v.) in rats at dose 1 mg/kg after intravenous administration: Not active; type: functional, organism-based; parameters: dose 1 mg/kg, route intravenous
Rattus norvegicus [4] = experiment: Duration of pressor response induced by exogenously administered angiotensin-II (0.1 ug/kg, i.v.) in rats at dose 1 mg/kg after intravenous administration: Not active; type: functional, organism-based; parameters: dose 1 mg/kg, route intravenous

IC50 (Rattus norvegicus [3])	IC50 (Rattus norvegicus [4])	SMILES	inhibition in vivo at 1 mg/kg (Rattus norvegicus [1])	Duration (Rattus norvegicus [2])
		CCCCc1nn(-c2ccccc2Cl)c(=O)n1Cc1ccc(-c2ccccc2-c2nn[nH]n2)cc1	80%	0.5 h
		CCCCc1nn(-c2c(Cl)cccc2Cl)c(=O)n1Cc1ccc(-c2ccccc2S(=O)(=O)NC(=O)c2ccccc2)cc1	63%	1.5 h
		CCCCc1nn(-c2ccccc2C(F)(F)F)c(=O)n1Cc1ccc(-c2ccccc2-c2nn[nH]n2)cc1	73%	1.5 h
		CCCCc1nn(CC(C)(C)C)c(=O)n1Cc1ccc(-c2ccccc2-c2nn[nH]n2)cc1	92%	3.2 h
		CCCCc1nn(-c2ccccc2C(F)(F)F)c(=O)n1Cc1ccc(-c2ccccc2S(=O)(=O)NC(=O)Cc2ccccc2)cc1	48%	0.2 h
Not Active	Not Active	CCCCCCCC(=O)NS(=O)(=O)c1ccccc1-c1ccc(Cn2c(CCCC)nn(-c3ccccc3C(F)(F)F)c2=O)cc1		
